Data from PMC3323305 (2011).

Biological target: 18-kDa Translocator Protein (TSPO) (Homo sapiens, UniProt P30536, T147A)
Test: radioligand competition against [3H]PK11195 in human platelet membranes
Type: binding

18-kDa Translocator Protein (TSPO), sequence (P30536 2-169 T147A): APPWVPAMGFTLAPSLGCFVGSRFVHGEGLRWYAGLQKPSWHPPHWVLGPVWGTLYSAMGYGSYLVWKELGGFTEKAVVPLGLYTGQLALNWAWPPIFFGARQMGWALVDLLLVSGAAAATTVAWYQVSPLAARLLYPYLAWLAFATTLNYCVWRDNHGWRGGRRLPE

Work on `COc1ccccc1CN(C(C)=O)c1cnccc1Oc1ccccc1` [PBR28] yielded a Ki of 2.17 ± 0.17 nM.
